Reference: patent EP0341661A2, “Peptide-drug compositions containing alpha-aminoboronic acid derivatives” (THE DU PONT MERCK PHARMACEUTICAL COMPANY, priority 1988, dated 1989)
Where a name gives a salt, the structure may show the parent alone.

Columns and labels:
Assay type in all cases: in vivo, Sprague-Dawley rats
aminopeptidases [1] = experiment: In situ nasal perfusion: disappearance of 35 µM LH-RH (fragment 3-10) in the nasal perfusate; conditions: 0.465 µM Boroleucine
Method: (§1) The method involved the use of Sprague-Dawley rats weighing approximately 300 grams. Each rat was anesthetized with sodium pentobarbitol (50 mg/kg). An incision was made in the neck and the trachea was canulated with PE 240 tubing. For the in situ studies, a second tube, which served to introduce the perfusing solution, was inserted through the esophagus to the posterior part of the nasal cavity. The nasopalatine was closed with an adhesive to prevent drainage of the perfusing solution from the nasal to the oral cavity. For the in vivo in situ studies, the esophagus was canulated using PE 240 tubing closed at one end. The closed end was pushed to the posterior end of the nasal passage and then tied in place. The nasopalatine was closed with an adhesive to prevent drainage of the perfusing solution from the nasal to the oral cavity. The rats were dosed in one nostril with 50 µl of peptide solution in two forms; the control solution had no inhibitor added, the test solution had inhibitor added at concentrations specified in the examples shown below. The dosing solution was 0.1 M phosphate buffer (pH 7.4). At certain time intervals (one rat/time interval), the drug was washed from the nose via the other nostril with 10 ml of 0.1 M phosphate buffer (pH 3.8) using a peristaltic pump. The nasal washing was then placed in a 10 ml volumetric flask and adjusted to 10 ml with the same buffer and analyzed for the peptide by HPLC.
(§2) The analysis of leucine enkephalin and its major metabolite involved taking aliquots of samples, diluting them with 200 µl of 0.1 M citric acid (pH 2.3) to quench hydrolysis and subjecting the samples to analysis (for in vivo in situ studies, the washings were injected as they were obtained). High Pressure Liquid Chromatography (HPLC) was run on a 4.6 x 250 mm C₈ column. The mobile phase consisted of 0.1 M NaH₂PO₄-H₃PO₄-acetonitrile (916 : 5 : 275) and was delivered at a flow rate of 1.7 ml/min. Detection was by UV at 210 nm. Retention times for leucine enkephalin and its major degradation product, Des-Tyr-leucine enkephalin were 7.3 and 4.8 min., respectively. Data were calculated as % of leucine enkephalin remaining in the nasal perfusate as a function of time, counting the concentration at zero time as 100%.
(§3) A 10 ml portion of the peptide solution was placed in a water-jacketed container, maintained at 37°C and circulated through the nasal cavity of rats using a peristaltic pump. The perfusing solution was passed through the nasal cavity, out the nostrils, through a funnel, and returned to the water-jacketed container. The perfusate was analyzed by the ANALYTICAL METHOD described above.
In this example, a 0.1 M phosphate buffer solution (pH 7.4) containing 35 µM LH-RH (fragment 3-10) in the absence of inhibitor and in the presence of the inhibitor, boroleucine at a concentration of 0.46 µM was administered to rats as described in Example 1. The perfusate was analyzed by HPLC as described in Example 1 with the exception of the mobile phase used. The mobile phase was comprised of 0.1 M NaH₂PO₄:H₃PO₄:CH₃CN(916:5:240) delivered at 1.7 ml/min and analyzed by UV at 210 nm.

aminopeptidases [2] = experiment: In situ nasal perfusion: disappearance of 100 µM Tyr-Phe-Met-Arg-Phe-NH₂ in the nasal perfusate; conditions: 100 µM peptide, 2 µM Boroleucine
Method: as §1, §2, §3
In this example, a 0.1 M phosphate buffer solution (pH 7.4) containing 100 µM Tyr-Phe-Met-Arg-Phe-NH₂ was administered nasally to rats as described in Example 1. The peptide was administered in the absence of inhibitor and in the presence of 2 µM boroleucine. The perfusate was analyzed by HPLC using the procedure described in Example 1 with the exception that the mobile phase was comprised of 0.1 M NaH₂PO₄:H₃PO₄:CH₃CN (200:1:60) delivered at 1.4 ml/min. Detection was by UV at 210 nm.

aminopeptidases [3] = experiment: In situ nasal perfusion: degradation of 100 µM leucine enkephalin in the nasal perfusate; conditions: 0.01 µM Boroleucine (title: 0.1 µM), 60 min
[4] = 120 min, listed as Boroleucine, trifluoroacetic acid salt
[5] = 120 min, trifluoroacetic acid salt

`CC(C)CC(N)B1OC(C)(C)C(C)(C)O1` (centres unmarked) [boroleucine, 3-methyl-1(4,4,5,5-tetramethyl-1,3,2-dioxaborolane-2-yl)-1-butamine, trifluoroacetic acid salt] was tested. Which “LH-RH (fragment 3-10) remaining in the nasal perfusate” value (shortened to “LH-RH (fragment 3-10) remaining”) (aminopeptidases [1]; 0 min) did it give?
Its value is 100.0%.

What about the “LH-RH (fragment 3-10) remaining” value (aminopeptidases [1]; 5 min) of the same compound?
The value was 96.7%.

What about the “LH-RH (fragment 3-10) remaining” value (aminopeptidases [1]; 10 min) of the same compound?
Its value is 97.5%.

And the “LH-RH (fragment 3-10) remaining” value (aminopeptidases [1]; 20 min)?
Its value is 95.5%.

What about the “LH-RH (fragment 3-10) remaining” value (aminopeptidases [1]; 30 min) of the same compound?
Its value is 96.5%.

What about the “LH-RH (fragment 3-10) remaining” value (aminopeptidases [1]; 45 min) of the same compound?
Its value is 95.8%.

What about the “LH-RH (fragment 3-10) remaining” value (aminopeptidases [1]; 60 min) of the same compound?
The value was 91.9%.

And the “LH-RH (fragment 3-10) remaining” value (aminopeptidases [1]; 90 min)?
The value was 92.9%.

And the “LH-RH (fragment 3-10) remaining” value (aminopeptidases [1]; [4])?
Its value is 86.4%.

And the “LH-RH (fragment 3-10) remaining” value (aminopeptidases [1]; [5])?
The value was “about 86%”.

And the “Tyr-Phe-Met-Arg-Phe-NH₂ remaining intact in the nasal perfusate” value (shortened to “Tyr-Phe-Met-Arg-Phe-NH₂ remaining intact”) (aminopeptidases [2]; 0 min)?
Its value is 100.0%.

What about the “Tyr-Phe-Met-Arg-Phe-NH₂ remaining intact” value (aminopeptidases [2]; 5 min) of the same compound?
Its value is 93.8%.

What about the “Tyr-Phe-Met-Arg-Phe-NH₂ remaining intact” value (aminopeptidases [2]; 20 min) of the same compound?
Its value is 84.3%.

What about the “Tyr-Phe-Met-Arg-Phe-NH₂ remaining intact” value (aminopeptidases [2]; 30 min) of the same compound?
The value was 78.8%.

And the “Tyr-Phe-Met-Arg-Phe-NH₂ remaining intact” value (aminopeptidases [2]; 45 min)?
The value was 70.5%.

And the “Tyr-Phe-Met-Arg-Phe-NH₂ remaining intact” value (aminopeptidases [2]; 60 min)?
Its value is 63.3%.

What about the “Tyr-Phe-Met-Arg-Phe-NH₂ remaining intact” value (aminopeptidases [2]; 90 min) of the same compound?
Its value is 49.5%.

What about the “Tyr-Phe-Met-Arg-Phe-NH₂ remaining intact” value (aminopeptidases [2]; [4]) of the same compound?
Its value is 32.9%.

And the “Tyr-Phe-Met-Arg-Phe-NH₂ remaining intact” value (aminopeptidases [2]; [5])?
The value was 33%.

What about the “% of leucine enkephalin remaining in the nasal perfusate” value (aminopeptidases [3]) of the same compound?
The value was 88.8±2.6%.
